{
  "source": "patent US11583570B2",
  "about": "“Use of autoinducer-related pathway in inducing apoptosis and anti-infective therapy” (TSINGHUA UNIVERSITY, priority 2017, dated 2023)",
  "format_in_all_cases": "cell-based",
  "key": {"[1]": {"tested_on": "monocytic RAW264.7", "assay": "Annexin V/PI apoptosis detection, RAW264.7", "protocol": "(§1) Cell apoptosis was detected with Annexin V/PI apoptosis detection Kit. Briefly, cells were stimulated with HSLs or left untreated. 6 hrs later, cells were collected and stained with Annexin VFITC and PI for 15 min at RT, then the apoptotic effect was measured by flow cytometry. OT-I or OT-II splenocytes were pulsed with specific peptides or PMA and ionomycin mixture with or without HSLs or TNF α plus cycloheximide. 24 hrs later, cells and supernatants were collected separately. For OT-I activation, cells were stained with CD69 and CD8. For OT-II activation, cells were stained with CD69 and CD4. Cell activation was measured by flow cytometry. All supernatants were detected for IL-2 secretion by ELISA."}, "[2]": {"tested_on": "thioglycolate-induced macrophages", "assay": "Annexin V/PI apoptosis detection, macrophages", "protocol": "as §1"}, "[3]": {"tested_on": "FADD in complex with caspase 8", "assay": "FADD / caspase 8 co-immunoprecipitation", "conditions": "following 3OC12 HSL treatment", "protocol": "For FADD immunoprecipitation, 4 μg anti-mouse FADD pAb (Santa Cruz, H-181) were incubated with 100 μl protein A/G agarose for 2 hrs at RT. 3 million/ml purified CD4 T cells were stimulated with HSLs or left untreated. The cells were then collected and lysed with IP lysis buffer (50 mM HEPES pH 7.4, 150 mM NaCl, 1% NP-40, 1 mM EDTA, 1 mM PMSF, 1 mM NaF, 1 mM NaVO3 and protease inhibitor cocktails). The cell lysates were added into antibody-bead mixtures for 3 hrs at 4° C. Beads were then collected by low speed centrifugation (1000 g, 5 min) and washed 4 times with IP lysis buffer (300 mM NaCl added). After the last wash, pellets were suspended with 70 ul 2×SDS loading buffer and boiled for 5 min. For caspase 8 immunoprecipitation, 4 μg anti-Caspase 8 pAb (Santa Cruz, C-20) was incubated with 100 μl protein A/G agarose for 1 hr at RT. 3 million/ml H9 cells were treated with HSLs or left untreated. The samples were processed as in FADD IP. For cross-linking assay, CD4+ T cells isolated from C57BL/6 mice spleen or human THP-1 cells was stimulated with HSLs or left untreated, then cells were collected and cross-linked by 10 mM DTSSP at RT for 30 min and quenched with 1M Tris-HCl (pH7.5) for 15 min. […]"}, "[4]": {"tested_on": "Iκbα", "assay": "Iκbα degradation in non-apoptotic Jurkat cells"}, "[5]": {"target": "T1, TNFR1 (Mus musculus, UniProt P25118)", "T1 construct": "To track individual TNFR1 on the cell membrane; endogenous in cells", "T1 sequence (P25118 30-454)": "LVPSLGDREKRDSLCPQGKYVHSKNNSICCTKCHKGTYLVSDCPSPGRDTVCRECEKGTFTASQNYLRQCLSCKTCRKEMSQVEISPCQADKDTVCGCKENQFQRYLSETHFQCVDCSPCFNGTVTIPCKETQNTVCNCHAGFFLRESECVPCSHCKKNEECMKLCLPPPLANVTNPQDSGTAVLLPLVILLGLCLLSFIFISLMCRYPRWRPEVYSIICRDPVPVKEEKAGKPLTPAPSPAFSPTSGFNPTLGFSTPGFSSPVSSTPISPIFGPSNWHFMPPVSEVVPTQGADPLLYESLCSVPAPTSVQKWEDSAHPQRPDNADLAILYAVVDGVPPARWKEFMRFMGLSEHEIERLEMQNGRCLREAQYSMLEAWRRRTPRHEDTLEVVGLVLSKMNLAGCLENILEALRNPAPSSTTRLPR", "assay": "Quantum dot-based single particle tracking, TNFR1", "protocol": "To track individual TNFR1 on the cell membrane, anti-TNFR1 IgG (was first papain digested to yield a Fab fragment. The Fab was then conjugated with biotin through the unique —SH at its C terminal. To prepare anti TNFR1 Fab QD conjugates, a solution of 0.7 nM anti TNFR1—Fab-biotin in 1 ml of DMEM was added drop-wise to 1 ml of 2 nM QD 605-streptavidin conjugate. Cell monolayers (50% confluent) previously serum starved for 1 hr were treated with 3OC12 HSL or left untreated and incubated with […] of the final anti TNFR1-Fab-QD solution at 25° C. for 2 min. The cells were then washed twice with PBS at 25° C., placed in serum-free medium, and loaded for imaging. For single-FcRγIIA tracking, Fc fragment was obtained by papain digestion of an anti-BSA IgG (Sigma Aldrich). Fc-QD conjugate was produced as described before. Cos-1 cells were transiently transfected with Fcγ RIIA plasmid, 24 hrs later, cells were stimulated with 3OC12 HSL or left untreated and incubated with […] of the final Fc-QD solution at 25° C. for 2 min. Quantum dot-labeled cells were imaged in TIRF mode. The fluorescence was excited at 488 nm and gated by a band-pass filter (575-640, Carl Zeiss). The excitation power was about 2 mW measured after the objective. Movies of 400 frames were acquired for each sample at a full-frame rate of 17 Hz. Individual trajectories were constructed by Utrack written in Matlab. Diffusion coefficient and plot area were calculated by customized programs written with Matlab. For motion pattern determination by MSD-t analysis 5: linear, simple Brownian diffusion; open-up parabolic, directed diffusion; open-down parabolic, restricted diffusion; and near zero, stationary."}, "[6]": {"tested_on": "RAW264.7 cells", "assay": "Phagocytosis assay", "protocol": "For Phagocytic assay, polystyrene beads were coated with BSA plus mouse anti-BSA Ab via commercial methods. Before experiment, RAW264.7 cells were cultured on clean glass slices in 24-hole plate with Opti-MEM. Cells were co-cultured with coated beads, centrifuged at 900 g, 4° C. for 5 min and cultured at 37° C. for 45 min. Then cells were fixed with 4% paraformaldehyde and stained with 488 nm anti-mouse fluorescent Ab for immunofluorescent imaging. For analysis, total number of beads on each cell was calculated under bright field, the number of beads which were not engulfed were calculated under fluorescent lighting."}},
  "data": [
    {"compound": "CCCCCCCCCC(=O)CC(=O)N[C@H]1CCOC1=O", "note": "[3OC12 HSL, N-(3-oxo-dodecanoyl) homoserine lactone]", "values": [
      {"measurement": "sensitivity to 3OC12 HSL", "setting": "[1]", "value": "sensitive"},
      {"measurement": "sensitivity to 3OC12 HSL", "setting": "[2]", "value": "relatively resistant"},
      {"measurement": "FADD association with caspase 8", "setting": "[3]", "value": "in complex with caspase 8"},
      {"measurement": "Iκbα degradation", "setting": "[4]", "value": "degraded"},
      {"measurement": "TNFR1 diffusion coefficient", "setting": "[5]", "value": "significantly increased"},
      {"measurement": "TNFR1 x-y surface area coverage", "setting": "[5]", "value": "high x-y surface area coverage"},
      {"measurement": "TNFR1 motion pattern", "setting": "[5]; MSD analysis", "value": "more likely to fall into the simple mode of motion"},
      {"measurement": "attachment of beads to cells", "setting": "[6]", "value": "not affected"},
      {"measurement": "phagocytosis of antibody-coated latex beads", "setting": "[6]; without 3OC12 HSL 4.6", "value": "2.6+/−0.2%"}
    ]}
  ]
}
